System: Dirofilaria immitis
Test: Effect test on Dirofilaria immitis (larval motility inhibition)
Settings: 168 h, read-out: motility inhibition rate

**Q.** How did the inhibition at 100 µM turn out when O=C1CC(c2ccc(Cl)s2)CC(=O)C1=C(Nc1ccc(F)cn1)Nc1ccc(F)cn1 (stereo not drawn) [1-2] was run?
**A.** ≥ 50%

**Q.** For O=C1CC(c2ccc(C(F)(F)F)cc2)CC(=O)C1=C(Nc1ccc(F)nc1)Nc1ccc(F)nc1 (stereo not drawn) [1-3], which inhibition at 100 µM is on record?
**A.** ≥ 50%

**Q.** For O=C1CC(c2ccc(C(F)(F)F)cc2)CC(=O)C1=C(Nc1ccnc(F)c1)Nc1ccnc(F)c1 (stereo not drawn) [1-4], which inhibition at 100 µM is on record?
**A.** ≥ 50%

**Q.** For O=C1CC(c2ccc(Br)cn2)CC(=O)C1=C(Nc1ccc(F)cn1)Nc1ccc(F)cn1 (stereo not drawn) [1-5], which inhibition at 100 µM is on record?
**A.** ≥ 50%

**Q.** With O=C1CC(c2ccc(Br)cn2)CC(=O)C1=C(Nc1ccc(F)nc1)Nc1ccc(F)nc1 (stereo not drawn) [1-6] as the molecule, how does the inhibition at 100 µM read?
**A.** ≥ 50%

**Q.** With O=C1CC(c2ccc(Br)cn2)CC(=O)C1=C(Nc1ccnc(F)c1)Nc1ccnc(F)c1 (stereo not drawn) [1-7] as the molecule, how does the inhibition at 100 µM read?
**A.** ≥ 50%

**Q.** O=C1CC(c2ccc(C(F)(F)F)nc2)CC(=O)C1=C(Nc1ccc(F)nc1)Nc1ccc(F)nc1 (stereo not drawn) [1-8] was tested. Which inhibition at 100 µM did it give?
**A.** ≥ 50%

**Q.** For CNC(NC)=C1C(=O)CC(c2ccco2)CC1=O (stereo not drawn) [1-11], which inhibition at 100 µM is on record?
**A.** ≥ 50%

**Q.** Which inhibition at 100 µM does the source give for O=C1CC(c2ccc(C(F)(F)F)cc2)CC(=O)C1=C(NCc1ccc(OC(F)(F)F)cc1)Nc1ccc(F)cc1 (stereo not drawn) [1-14] here?
**A.** ≥ 50%

**Q.** Which inhibition at 100 µM does the source give for Cc1cc(NC(Nc2ccc(F)cc2)=C2C(=O)CC(c3ccc(C(F)(F)F)cc3)CC2=O)no1 (stereo not drawn) [1-15] here?
**A.** ≥ 50%

**Q.** O=C1CC(c2ccc(C(F)(F)F)cc2)CC(=O)C1=C(NCc1ccccn1)Nc1ccc(F)cc1 (stereo not drawn) [1-19] was tested. Which inhibition at 100 µM did it give?
**A.** ≥ 50%

**Q.** How did the inhibition at 100 µM turn out when COCCNC(Nc1ccc(F)cc1)=C1C(=O)CC(c2ccc(C(F)(F)F)cc2)CC1=O (stereo not drawn) [1-25] was run?
**A.** ≥ 50%

**Q.** Which inhibition at 100 µM does the source give for O=C1CC(c2ccc(C(F)(F)F)cc2)CC(=O)C1=C(NCCBr)Nc1ccc(F)cc1 (stereo not drawn) [1-27] here?
**A.** ≥ 50%

**Q.** COCCNC(NCCOC)=C1C(=O)CC(c2ccc(C(F)(F)F)cc2)CC1=O (stereo not drawn) [1-29] was tested. Which inhibition at 100 µM did it give?
**A.** ≥ 50%

**Q.** How did the inhibition at 100 µM turn out when O=C1CC(c2ccc(C(F)(F)F)cc2)CC(=O)C1=C(NCc1ccc(F)cc1)Nc1ccc(F)cc1 (stereo not drawn) [1-34] was run?
**A.** ≥ 50%

**Q.** For O=C1CC(c2ccc(C(F)(F)F)cc2)CC(=O)C1=C(Nc1ccc(F)cc1)NC1CC1 (stereo not drawn) [1-36], which inhibition at 100 µM is on record?
**A.** ≥ 50%

**Q.** Which inhibition at 100 µM does the source give for CN(C)CCNC(NCCN(C)C)=C1C(=O)CC(c2ccc(C(F)(F)F)cc2)CC1=O (stereo not drawn) [1-42] here?
**A.** ≥ 50%

**Q.** For CC1(C)C(=O)C(=C(Nc2ccc(F)nc2)Nc2ccc(F)nc2)C(=O)CC1c1ccc(Br)cn1 (stereo not drawn) [1-46], which inhibition at 100 µM is on record?
**A.** ≥ 50%

**Q.** CC1(C)C(=O)C(=C(Nc2ccnc(F)c2)Nc2ccnc(F)c2)C(=O)CC1c1ccc(Br)cn1 (stereo not drawn) [1-47] was tested. Which inhibition at 100 µM did it give?
**A.** ≥ 50%

**Q.** For O=C1CC(c2ccc(Cl)s2)CC(=O)C1=C(Nc1ccc(F)nc1)Nc1ccc(F)nc1 (stereo not drawn) [1-49], which inhibition at 100 µM is on record?
**A.** ≥ 50%

**Q.** For O=C1CCC(CC(F)(F)F)C(=O)C1=C(Nc1ccc(F)nc1)Nc1ccc(F)nc1 (stereo not drawn) [1-52], which inhibition at 100 µM is on record?
**A.** ≥ 50%

**Q.** O=C1CCC(CC(F)(F)F)C(=O)C1=C(Nc1ccc(F)cc1)Nc1ccc(F)nc1 (stereo not drawn) [1-54] was tested. Which inhibition at 100 µM did it give?
**A.** ≥ 50%

**Q.** Which inhibition at 100 µM does the source give for CNC(Nc1ccc(F)nc1)=C1C(=O)CC(c2ccc(C(F)(F)F)cc2)CC1=O (stereo not drawn) [1-56] here?
**A.** ≥ 50%

**Q.** With CNC(Nc1ccc(F)cc1)=C1C(=O)CC(c2ccc(C(F)(F)F)cc2)CC1=O (stereo not drawn) [1-57] as the molecule, how does the inhibition at 100 µM read?
**A.** ≥ 50%

**Q.** For O=C1CC(c2ccc(C(F)(F)F)cc2)CC(=O)C1=C(Nc1ccc(F)cc1)Nc1cnccn1 (stereo not drawn) [1-64], which inhibition at 100 µM is on record?
**A.** ≥ 50%

**Q.** Which inhibition at 100 µM does the source give for O=C1CC(c2ccc(C(F)(F)F)cc2)CC(=O)C1=C(Nc1ccc(F)cc1)NC1CCOc2ccccc21 (stereo not drawn) [1-69] here?
**A.** ≥ 50%

**Q.** Which inhibition at 100 µM does the source give for CNC(Nc1ccc(F)nc1)=C1C(=O)CC(c2ccc(C(F)(F)F)cc2)C(c2ccccn2)C1=O (stereo not drawn) [1-70] here?
**A.** ≥ 50%

**Q.** Which inhibition at 100 µM does the source give for O=C1CC(c2ccc(C(F)(F)F)cc2)C(c2ccncc2)C(=O)C1=C(Nc1ccc(F)nc1)Nc1ccc(F)nc1 (stereo not drawn) [1-72] here?
**A.** ≥ 50%

**Q.** With O=C1CC(c2ccc(C(F)(F)F)cc2)C(c2ccccn2)C(=O)C1=C(Nc1ccc(F)cc1)Nc1ccc(F)nc1 (stereo not drawn) [1-73] as the molecule, how does the inhibition at 100 µM read?
**A.** ≥ 50%

**Q.** How did the inhibition at 100 µM turn out when Cn1nc(-c2ccccc2)c(C2CC(=O)C(=C(Nc3ccc(F)cc3)Nc3ccc(F)nc3)C(=O)C2)c1Cl (stereo not drawn) [1-79] was run?
**A.** ≥ 50%

**Q.** Which inhibition at 100 µM does the source give for Cn1nc(-c2ccccc2)c(C2CC(=O)C(=C(Nc3ccc(F)cc3)Nc3ccc(F)cc3)C(=O)C2)c1Cl (stereo not drawn) [1-80] here?
**A.** ≥ 50%

**Q.** For CNC(Nc1ccc(F)cc1)=C1C(=O)CC(c2c(-c3ccccc3)nn(C)c2Cl)CC1=O (stereo not drawn) [1-82], which inhibition at 100 µM is on record?
**A.** ≥ 50%

**Q.** How did the inhibition at 100 µM turn out when CNC(Nc1ccn(C)n1)=C1C(=O)CC(c2ccc(C(F)(F)F)cc2)CC1=O (stereo not drawn) [1-117] was run?
**A.** ≥ 50%

**Q.** Which inhibition at 100 µM does the source give for COc1ncccc1NC(Nc1cccnc1OC)=C1C(=O)CC(c2ccc(C(F)(F)F)cc2)CC1=O (stereo not drawn) [1-118] here?
**A.** ≥ 50%

**Q.** How did the inhibition at 100 µM turn out when O=C1CC(c2ccc(C(F)(F)F)nc2)OC(=O)C1=C(Nc1ccnc(F)c1)Nc1ccnc(F)c1 (stereo not drawn) [2-1] was run?
**A.** ≥ 50%

**Q.** O=C1CC(c2ccc(C(F)(F)F)nc2)OC(=O)C1=C(Nc1ccc(F)cn1)Nc1ccc(F)cn1 (stereo not drawn) [2-2] was tested. Which inhibition at 100 µM did it give?
**A.** ≥ 50%

**Q.** How did the inhibition at 100 µM turn out when O=C1CC(c2ccc(C(F)(F)F)nc2)OC(=O)C1=C(Nc1ccc(F)nc1)Nc1ccc(F)nc1 (stereo not drawn) [2-3] was run?
**A.** ≥ 50%

**Q.** CCC1(c2ccc(C(F)(F)F)cc2)CN(C)C(=O)C(=C(NC)Nc2ccc(F)nc2)C1=O (stereo not drawn) [3-8] was tested. Which inhibition at 100 µM did it give?
**A.** ≥ 50%

**Q.** Which inhibition at 100 µM does the source give for CCC1(c2ccc(C(F)(F)F)cc2)CN(C)C(=O)C(=C(Nc2ccc(F)cc2)Nc2ccc(F)nc2)C1=O (stereo not drawn) [3-9] here?
**A.** ≥ 50%

**Q.** For CCC1(c2ccc(C(F)(F)F)cc2)CN(C)C(=O)C(=C(Nc2ccc(F)nc2)Nc2ccc(F)nc2)C1=O (stereo not drawn) [3-10], which inhibition at 100 µM is on record?
**A.** ≥ 50%

**Q.** With CNC(Nc1ccc(F)nc1)=C1C(=O)CC(c2cc(OC(F)F)n(C)n2)NC1=O (stereo not drawn) [3-20] as the molecule, how does the inhibition at 100 µM read?
**A.** ≥ 50%

**Q.** For O=C1CC(c2cnc(Cl)c(Br)c2)NC(=O)C1=C(Nc1ccc(F)cc1)Nc1ccc(F)nc1 (stereo not drawn) [3-43], which inhibition at 100 µM is on record?
**A.** ≥ 50%

**Q.** With CNC(Nc1ccc(F)cc1)=C1C(=O)CCCN(c2ccc(C(F)(F)F)cc2)C1=O [5-2] as the molecule, how does the inhibition at 100 µM read?
**A.** ≥ 50%

**Q.** CNC(Nc1ccc(F)cc1)=C1C(=O)CN(c2cnc(C#N)c(OC)c2)N(C(=O)OC)C1=O [6-21] was tested. Which inhibition at 100 µM did it give?
**A.** ≥ 50%

**Q.** With CNC(Nc1ccc(F)cc1)=C1C(=O)CN(c2ccc(C#N)nc2)N(Cc2ccccc2)C1=O [6-27] as the molecule, how does the inhibition at 100 µM read?
**A.** ≥ 50%

**Q.** CCOC(=O)N1C(=O)C(=C(NC)Nc2ccc(F)c(F)c2)C(=O)CN1c1ccc(C#N)c(F)c1 [6-29] was tested. Which inhibition at 100 µM did it give?
**A.** ≥ 50%

**Q.** With CCOC(=O)N1C(=O)C(=C(NCc2cccc(F)c2)Nc2cccc(F)c2)C(=O)CN1c1ccc(C#N)c(Cl)c1 [6-31] as the molecule, how does the inhibition at 100 µM read?
**A.** ≥ 50%

**Q.** With CNC(Nc1ccc(F)cc1)=C1C(=O)CN(c2ccccc2)N(c2ccccc2)C1=O [6-35] as the molecule, how does the inhibition at 100 µM read?
**A.** ≥ 50%

**Q.** CNC(Nc1ccc(F)cc1)=C1C(=O)CN(c2cnc(C#N)c(Cl)c2)N(C)C1=O [6-44] was tested. Which inhibition at 100 µM did it give?
**A.** ≥ 50%

**Q.** For CSC(Nc1ccc(F)nc1)=C1C(=O)CC(c2ccc(Br)s2)NC1=O (stereo not drawn) [9-33], which inhibition at 100 µM is on record?
**A.** ≥ 50%

**Q.** Which inhibition at 100 µM does the source give for CSC(Nc1ccc(F)nc1)=C1C(=O)CCN(c2ccc(C(F)(F)F)cc2)C1=O [9-34] here?
**A.** ≥ 50%

**Q.** For CCC1(c2ccc(C(F)(F)F)nc2)CN(C)C(=O)C(=C(Nc2ccc(F)nc2)SC)C1=O (stereo not drawn) [9-37], which inhibition at 100 µM is on record?
**A.** ≥ 50%

**Q.** CCC1(c2ccc3ccccc3n2)CN(C)C(=O)C(=C(Nc2ccc(F)nc2)SC)C1=O (stereo not drawn) [9-38] was tested. Which inhibition at 100 µM did it give?
**A.** ≥ 50%

**Q.** O=C1CC(c2ccc(C(F)(F)F)cc2)CC(=O)C1=C(Nc1ccc(F)cc1)Nc1ccc(F)cc1 (stereo not drawn) [compound No. 1-9, 2-(bis((4-fluorophenyl)amino)methylene)-5-(4-(trifluoromethyl)phenyl)cyclohexane-1,3-dione] was tested. Which inhibition at 100 µM did it give?
**A.** ≥ 50%

Reference: patent EP4737442A1, “DIAMINOVINYLIDENE DERIVATIVE OR SALT THEREOF, PEST CONTROL AGENT CONTAINING SAID COMPOUND, AND METHODS FOR USING THESE” (ADEKA CORPORATION, priority 2023, dated 2025)
